Measurements taken from PubChem BioAssay (NCI).
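Tested at 5 concentrations; 48 h exposure; 96-well plates; endpoints linearly interpolated, else capped at highest concentration. GI50 is the concentration that inhibits growth by half. TGI: concentration producing complete growth inhibition.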

Assays:
Assay in all cases: DTP human tumour cell line panel, 48 h
[1] = test system: 786-0 renal
[2] = test system: A498 renal
[3] = test system: A549 NSCLC
[4] = test system: ACHN renal
[5] = test system: BT-549 breast
[6] = test system: CAKI-1 renal
[7] = test system: CCRF-CEM leukemia
[8] = test system: COLO 205 colon
[9] = test system: DU-145 prostate
[10] = test system: EKVX NSCLC
[11] = test system: HCC-2998 colon
[12] = test system: HCT-116 colon
[13] = test system: HCT-15 colon
[14] = test system: HL-60(TB) leukemia
[15] = test system: HOP-62 NSCLC
[16] = test system: HOP-92 NSCLC
[17] = test system: HS 578T breast
[18] = test system: HT29 colon
[19] = test system: IGROV1 ovarian
[20] = test system: K-562 leukemia
[21] = test system: KM12 colon
[22] = test system: LOX IMVI melanoma
[23] = test system: M14 melanoma
[24] = test system: MALME-3M melanoma
[25] = test system: MCF7 breast
[26] = test system: MDA-MB-231 breast
[27] = test system: MDA-MB-435
[28] = test system: MDA-MB-468 breast
[29] = test system: MOLT-4 leukemia
[30] = test system: NCI-H226 lung
[31] = test system: NCI-H23 lung
[32] = test system: NCI-H460 lung
[33] = test system: NCI-H522 lung
[34] = test system: NCI/ADR-RES ovarian
[35] = test system: OVCAR-3 ovarian
[36] = test system: OVCAR-4 ovarian
[37] = test system: OVCAR-5 ovarian
[38] = test system: OVCAR-8 ovarian
[39] = test system: PC-3 prostate
[40] = test system: RPMI-8226 leukemia
[41] = test system: RXF 393 renal
[42] = test system: SF-268 CNS
[43] = test system: SF-295 CNS
[44] = test system: SF-539 CNS
[45] = test system: SK-MEL-2 melanoma
[46] = test system: SK-MEL-28 melanoma
[47] = test system: SK-MEL-5 melanoma
[48] = test system: SK-OV-3 ovarian
[49] = test system: SN12C renal
[50] = test system: SNB-19 CNS
[51] = test system: SNB-75 CNS
[52] = test system: SR leukemia
[53] = test system: SW-620 colon
[54] = test system: T-47D breast
[55] = test system: TK-10 renal
[56] = test system: U251 CNS
[57] = test system: UACC-257 melanoma
[58] = test system: UACC-62 melanoma
[59] = test system: UO-31 renal

O=C(NCCCCC(c1ccc(F)cc1)c1ccc(F)cc1)NCCCc1cccnc1
GI50 [1]: 13.3 µM | TGI [1]: 37.1 µM | GI50 [2]: 18.3 µM | TGI [2]: 32.9 µM | GI50 [3]: 2620 nM | TGI [3]: 40.5 µM | GI50 [4]: 9.16 µM | TGI [4]: 22.8 µM | GI50 [5]: 3.21 µM | TGI [5]: 15.3 µM | GI50 [6]: 5.87 µM | TGI [6]: 25.3 µM | GI50 [7]: 330 nM | TGI [7]: 24.6 µM | GI50 [8]: 877 nM | TGI [8]: 16.2 µM | GI50 [9]: 721 nM | TGI [9]: 17.2 µM | GI50 [10]: 5.01 µM | TGI [10]: 23.6 µM | GI50 [11]: 822 nM | TGI [11]: 17.3 µM | GI50 [12]: 93.1 nM | TGI [12]: 13 µM | GI50 [13]: 461 nM | TGI [13]: 14.9 µM | GI50 [14]: 1640 nM | TGI [14]: > 39.4 µM | GI50 [15]: 14.6 µM | TGI [15]: 30.2 µM | GI50 [16]: 10.4 µM | TGI [16]: 26.5 µM | GI50 [17]: 5.04 µM | TGI [17]: 34.9 µM | GI50 [18]: 619 nM | TGI [18]: 17 µM | GI50 [19]: 816 nM | TGI [19]: 19.2 µM | GI50 [20]: 385 nM | TGI [20]: > 100 µM | GI50 [21]: 810 nM | TGI [21]: 18.4 µM | GI50 [22]: 10.7 µM | TGI [22]: 23.4 µM | GI50 [23]: 607 nM | TGI [23]: 16.4 µM | GI50 [24]: 8.47 µM | TGI [24]: 21.7 µM | GI50 [25]: 3.61 µM | TGI [25]: 20.3 µM | GI50 [26]: 4.94 µM | TGI [26]: 20.9 µM | GI50 [27]: 444 nM | TGI [27]: 15 µM | GI50 [28]: 1530 nM | TGI [28]: 10.6 µM | GI50 [29]: 1130 nM | TGI [29]: > 50.5 µM | GI50 [30]: 12.3 µM | TGI [30]: 29 µM | GI50 [31]: 6.8 µM | TGI [31]: 23 µM | GI50 [32]: 3.23 µM | TGI [32]: 19.4 µM | GI50 [33]: 546 nM | TGI [33]: 16.1 µM | GI50 [34]: 584 nM | TGI [34]: 17.3 µM | GI50 [35]: 4.58 µM | TGI [35]: 22.4 µM | GI50 [36]: 4.71 µM | TGI [36]: 53.1 µM | GI50 [37]: 628 nM | TGI [37]: 17.8 µM | GI50 [38]: 127 nM | TGI [38]: 26.4 µM | GI50 [39]: 645 nM | TGI [39]: 19 µM | GI50 [40]: 627 nM | TGI [40]: 20.3 µM | GI50 [41]: 12.4 µM | TGI [41]: 27.3 µM | GI50 [42]: 12.3 µM | TGI [42]: 29.2 µM | GI50 [43]: 1820 nM | TGI [43]: 15.4 µM | GI50 [44]: 97.4 nM | TGI [44]: 11.9 µM | GI50 [45]: 4.24 µM | TGI [45]: 16.9 µM | GI50 [46]: 10.6 µM | TGI [46]: 23.5 µM | GI50 [47]: 1220 nM | TGI [47]: 9.46 µM | GI50 [48]: 10.9 µM | TGI [48]: 29 µM | GI50 [49]: 133 nM | TGI [49]: 15.2 µM | GI50 [50]: 1790 nM | TGI [50]: 18.5 µM | GI50 [51]: 8.64 µM | TGI [51]: 26.8 µM | GI50 [52]: 3.17 µM | TGI [52]: > 100 µM | GI50 [53]: 297 nM | TGI [53]: 15.7 µM | GI50 [54]: 749 nM | TGI [54]: 16.1 µM | GI50 [55]: 13.7 µM | TGI [55]: 29.2 µM | GI50 [56]: 3.88 µM | TGI [56]: 22.1 µM | GI50 [57]: 9.06 µM | TGI [57]: 23.8 µM | GI50 [58]: 7.11 µM | TGI [58]: 20.2 µM | GI50 [59]: 5.51 µM | TGI [59]: 20.1 µM
